Source: US8614179B2, “Antibacterial combination therapy for the treatment of gram positive bacterial infections” (E-Therapeutics PLC, priority 2008, dated 2013)
Where two headings read alike, the source gives them in different places.

How the values were obtained:
MRSA AND VRE = assay: MIC by agar dilution, MIC50/MIC90/range over MRSA and VRE strain panel; format: cell-based, Staphylococcus aureus; Enterococci
Method: In example experiments miconazole nitrate, econazole nitrate and clotrimazole were dissolved in DMSO. Colistin, D-cycloserine, fosfomycin and polymixin B were dissolved in water.
Other solvents that may be used include caster oil, pyridine, and 0.9% saline. For IV administration agents may be solubilised in polyethoxylated caster oil, or cyclodextrins such as sulfobutylether7-βcyclodextrin or hydroxypropyl-β-cyclodextrin and lactic acid. Minimum inhibitory concentrations (MICs) of a range of clinical and control bacterial organisms were measured according to BSAC (British Society for Antimicrobial Chemotherapy) guidelines (Andrews 2001), for single agents. […] MICs were measured by agar dilution. Kill curves were performed in accordance with the methods of Garrison and Nuemiller, 2007. Briefly kill profiles were generated by logarithmically plotting mean CFU/mL data over time. Total logarithmic reductions in bacterial counts were determined by subtracting 24 h CFU/mL values from starting inocula.
(§1) Stock solutions were prepared at concentrations of 1000 mg/L and 100 mg/L. To determine the MIC of miconazole, the appropriate amount of each stock solution were added to separate Petri dishes give a range of final concentrations (after the addition of 20 mL molten agar): from 0.12 to 32 mg/L. To determine the MICs of miconazole with the specific agent active on a bacterial cell surface, these concentrations of miconazole were used in addition to a fixed sub-inhibitory amount of the agent active on a bacterial cell surface. […] Volumes (20 mL) of cooled molten IST agar (oxoid) was added to each Petri dish and mixed by swirling. After drying, the plates were stored at 4° C. and protected from light. Plates were used on the day of preparation.
(§2) The test organisms were grown overnight in 5 mL IST broth. Using a dilution in 0.9% saline of 1:100, the appropriate agar plates were inoculated using a multipoint inoculator. […]
The MIC is the minimum amount of an antibiotic at which there is no visible growth of bacteria. Tiny single colonies or faint hazes were not counted as growth. […] The concentration of miconazole, with or without the cell membrane or cell wall active agent, capable of inhibiting the growth of 50% and 90% of the strains tested is reported as the MIC50 and MIC90 respectively. The range of MICs for each group of bacterial strains is also reported.

[1] = in vivo, cited from earlier work
[2] = test system: Enterococcus faecium (VRE); assay: microbe, parasite or virus in culture; format: cell-based
Method: (§3) In example experiments miconazole nitrate, econazole nitrate and clotrimazole were dissolved in DMSO. Colistin, D-cycloserine, fosfomycin and polymixin B were dissolved in water. Nisin was suspended at 10 mg/mL in 0.02 M HCl, and the supernatant fraction following centrifugation at 10,000 g for 10 mins was used in the following experiments.
(§4) Other solvents that may be used include caster oil, pyridine, and 0.9% saline. For IV administration agents may be solubilised in polyethoxylated caster oil, or cyclodextrins such as sulfobutylether7-βcyclodextrin or hydroxypropyl-β-cyclodextrin and lactic acid. Minimum inhibitory concentrations (MICs) of a range of clinical and control bacterial organisms were measured according to BSAC (British Society for Antimicrobial Chemotherapy) guidelines (Andrews 2001), for single agents. The method of determining MICs of imidazole with colistin, D-cycloserine, fosfomycin, polymixin B, or nisin is described briefly as follows. MICs were measured by agar dilution. Kill curves were performed in accordance with the methods of Garrison and Nuemiller, 2007. Briefly kill profiles were generated by logarithmically plotting mean CFU/mL data over time. Total logarithmic reductions in bacterial counts were determined by subtracting 24 h CFU/mL values from starting inocula.
as §1
(§5) The test organisms were grown overnight in 5 mL IST broth. Using a dilution in 0.9% saline of 1:100, the appropriate agar plates were inoculated using a multipoint inoculator.
(§6) Agar plates and microtitre plates were incubated at 37° C. in air for 18-20 hours.
(§7) The MIC is the minimum amount of an antibiotic at which there is no visible growth of bacteria. Tiny single colonies or faint hazes were not counted as growth. Synergy was reported if the inhibitory effect of the drugs in combination were greater than the sum of the inhibitory effects of each drug singly. The concentration of miconazole, with or without the cell membrane or cell wall active agent, capable of inhibiting the growth of 50% and 90% of the strains tested is reported as the MIC50 and MIC90 respectively. The range of MICs for each group of bacterial strains is also reported.

VISA = assay: microbe, parasite or virus in culture; format: cell-based; conditions: Staphylococcus aureus
Method: as §3, §4, §1, §5, §6, §7

[3] = test system: Staphylococcus epidermidis; assay: MIC by agar dilution, Staphylococcus epidermidis; format: cell-based
Method: as §4, §1, §2
(§8) The MIC is the minimum amount of an antibiotic at which there is no visible growth of bacteria. Tiny single colonies or faint hazes were not counted as growth. […]

[4] = test system: Enterococcus faecalis (VRE); assay: MIC by agar dilution, Enterococcus faecalis (VRE); format: cell-based
Method: as §4, §1, §2, §8

Escherichia coli = assay: MIC by agar dilution, Escherichia coli; format: cell-based
Method: as §4, §1, §2, §8

Pseudomonas aeruginosa = assay: MIC by agar dilution, Pseudomonas aeruginosa; format: cell-based
Method: as §4, §1, §2, §8

[5] = ATCC 4147 / VRE, Table 2, strain E15 VanA ATCC 4147, read-out: MIC
[6] = NCTC 7171 / VRE, Table 2, strain NCTC 7171, read-out: MIC
[7] = VRE, Table 2, strain E19 UAA/522 VanB, read-out: MIC
[8] = VRE, Table 2, strain VanR B145344C LFE, read-out: MIC
[9] = Table 2, strain USA/VISA 5827, read-out: MIC
[10] = Table 2, strain USA/VISA 5836, read-out: MIC
[11] = Table 2, strain VISA 3900 UK, read-out: MIC

## C[C@@H]1O[C@@H]1P(=O)(O)O [fosfomycin]
MRSA AND VRE; fosfomycin alone at 5 mg/L
  inhibitory effect on the growth of the bacterial strains tested: no inhibitory effect

## Clc1ccccc1C(c1ccccc1)(c1ccccc1)n1ccnc1 [Clotrimazole, 1-[(2-Chlorophenyl)diphenylmethyl]-1H-imidazole]
[1]; human, po
  half-life: around 3 hours
[1]
  absorption following oral administration: well absorbed

## N[C@@H]1CONC1=O [D-cycloserine]
MRSA AND VRE; D-cycloserine alone at 10 mg/L
  inhibitory effect on the growth of the bacterial strains tested: no inhibitory effect

## OC(Cn1cncn1)(Cn1cncn1)c1ccc(F)cc1F [Fluconazole]
[2]; ATCC 4147 / VRE, Table 2, strain E15 VanA ATCC 4147
  MIC: > 128 µg/mL
[2]; NCTC 7171 / VRE, Table 2, strain NCTC 7171
  MIC: > 128 µg/mL
[2]; VRE, Table 2, strain E19 UAA/522 VanB
  MIC: > 128 µg/mL
[2]; VRE, Table 2, strain VanR B145344C LFE
  MIC: > 128 µg/mL
VISA; Table 2, strain USA/VISA 5827
  MIC: > 128 µg/mL
VISA; Table 2, strain USA/VISA 5836
  MIC: > 128 µg/mL
VISA; Table 2, strain VISA 3900 UK
  MIC: > 128 µg/mL
[3]; ATCC1228
  MIC: > 128 µg/mL
[4]
  MIC: > 128 µg/mL
Escherichia coli; NCTC10418
  MIC: > 128 µg/mL
Pseudomonas aeruginosa; NCTC10662
  MIC: > 128 µg/mL

## c1ccc(-c2ccc(C(c3ccccc3)n3ccnc3)cc2)cc1 (stereo not drawn) [Bifonazole]
[2]; [5]
  MIC: > 128 µg/mL
[2]; [6]
  MIC: > 128 µg/mL
[2]; [7]
  MIC: > 128 µg/mL
[2]; [8]
  MIC: > 128 µg/mL
VISA; [9]
  MIC: > 128 µg/mL
VISA; [10]
  MIC: > 128 µg/mL
VISA; [11]
  MIC: > 128 µg/mL
[3]; ATCC1228, Table 2, strain ATCC 1228, read-out: MIC
  MIC: > 128 µg/mL
[4]; Table 2, strain E8 VanA, read-out: MIC
  MIC: > 128 µg/mL
Escherichia coli; NCTC10418, Table 2, strain NCTC 10418, read-out: MIC
  MIC: > 128 µg/mL
Pseudomonas aeruginosa; NCTC10662, Table 2, strain NCTC 10662, read-out: MIC
  MIC: > 128 µg/mL

## colistin
MRSA AND VRE; colistin alone at 5 mg/L
  inhibitory effect on the growth of the bacterial strains tested: no inhibitory effect

## polymixin B
MRSA AND VRE; polymixin B alone at 20 mg/L
  inhibitory effect on the growth of the bacterial strains tested: no inhibitory effect

## CC(=O)N1CCN(c2ccc(OCC3COC(Cn4ccnc4)(c4ccc(Cl)cc4Cl)O3)cc2)CC1 (stereo not drawn) [Ketoconazole]
[2]; [5]
  MIC: 16 µg/mL
[2]; [6]
  MIC: 128 µg/mL
[2]; [7]
  MIC: 128 µg/mL
[2]; [8]
  MIC: 128 µg/mL
VISA; [9]
  MIC: 64 µg/mL
VISA; [10]
  MIC: 64 µg/mL
VISA; [11]
  MIC: 64 µg/mL
[3]; ATCC1228
  MIC: 64 µg/mL
[4]
  MIC: > 256 µg/mL
Escherichia coli; NCTC10418
  MIC: > 256 µg/mL
Pseudomonas aeruginosa; NCTC10662
  MIC: > 256 µg/mL
